# According to patent publication US20140243302A1, “BRIDGED BICYCLIC COMPOUNDS FOR THE TREATMENT OF BACTERIAL INFECTIONS” (priority 2011, published 2014):
# Counter-ions that a name gives are not always drawn.
# Tested on: Staphylococcus aureus Smith
# Test: MIC assay, modified agar dilution (CLSI), S. aureus Smith
# Type: cell-based
# Settings: Staphylococcus aureus, agar dilution, 35° C., 16-20 hr; lowest concentration that completely inhibited growth; read-out: S_aureus_Smith_WT_MIC
# Outline: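 Agar dilution per CLSI on Mueller Hinton agar (plus 5% horse blood for S. pneumoniae and E. faecium), compound 128 to 0.001 μg/mL in two-fold steps. Spots of ~1×10^4 CFU incubated at 35 °C for 16-20 hr before MIC scoring.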
row,Compound,MIC [µg/mL]
1,"NCC1(COc2ccc3ncc(F)c(CCC45CCC(NCc6ccc7c(n6)NC(=O)CO7)(CC4)CO5)c3n2)CC1 [Example 43, 6-((1-(2-(6-((1-(Aminomethyl)cyclopropyl)methoxy)-3-fluoro-1,5-naphthyridin-4-yl)ethyl)-2-oxabicyclo[2.2.2]octan-4-ylamino)methyl)-2H-pyrido[3,2-b][1,4]oxazin-3(4H)-one]",1
2,"COc1ccc2ncc(C#N)c(CCC34CCC(NCc5ccc6c(n5)NC(=O)CO6)(CC3)CO4)c2n1 [Example 44, 6-Methoxy-4-(2-(4-((3-oxo-3,4-dihydro-2H-pyrido[3,2-b][1,4]oxazin-6-yl)methylamino)-2-oxabicyclo[2.2.2]octan-1-yl)ethyl)-1,5-naphthyridine-3-carbonitrile]",0.016
3,"COc1ccc2ncc(C#N)c(CCC34CCC(NCc5cc6c(cn5)OCCO6)(CC3)CO4)c2n1 [Example 45, 4-(2-(4-((2,3-Dihydro-[1,4]dioxino[2,3-c]pyridin-7-yl)methylamino)-2-oxabicyclo[2.2.2]octan-1-yl)ethyl)-6-methoxy-1,5-naphthyridine-3-carbonitrile Hydrochloride]",0.031
4,"COc1ccc2ncc(C#N)c(CCC34CCC(NCc5cc6ccccc6n(C)c5=O)(CC3)CO4)c2n1.Cl [Example 46, 6-Methoxy-4-(2-(4-((1-methyl-2-oxo-1,2-dihydroquinolin-3-yl)methylamino)-2-oxabicyclo[2.2.2]octan-1-yl)ethyl)-1,5-naphthyridine-3-carbonitrile Hydrochloride]",2
5,"CON=C1COc2ccc(CNC34CCC(CCc5c(F)cnc6ccc(OC)nc56)(CC3)OC4)nc2N1 [Example 47, 6-((1-(2-(3-Fluoro-6-methoxy-1,5-naphthyridin-4-yl)ethyl)-2-oxabicyclo[2.2.2]octan-4-ylamino)methyl)-2H-pyrido[3,2-b][1,4]oxazin-3(4H)-one O-Methyl Oxime]",2
6,"COc1ccc2ncc(F)c(CCC34CCC(NCc5ccc6c(n5)NC(=NO)CO6)(CC3)CO4)c2n1 [Example 48, 6-((1-(2-(3-Fluoro-6-methoxy-1,5-naphthyridin-4-yl)ethyl)-2-oxabicyclo[2.2.2]octan-4-ylamino)methyl)-2H-pyrido[3,2-b][1,4]oxazin-3(4H)-one Oxime]",2
7,"COc1ccc2c(n1)c(CCC13CCC(NCc4ccc5c(n4)NC(=O)CO5)(CC1)CO3)cc(=O)n2C [Example 49, 6-(((1-(2-(6-Methoxy-1-methyl-2-oxo-1,2-dihydro-1,5-naphthyridin-4-yl)ethyl)-2-oxabicyclo[2.2.2]octan-4-yl)amino)methyl)-2H-pyrido[3,2-b][1,4]oxazin-3(4H)-one]",1
8,"COc1ccc2ncc(OC)c(CCC34CCC(NCc5ccc6c(n5)NC(=O)CO6)(CC3)CO4)c2n1 [Example 50, 6-[({1-[2-(3,6-Dimethoxy-1,5-naphthyridin-4-yl)ethyl]-2-oxabicyclo[2.2.2]oct-4-yl}amino)methyl]-2H-pyrido[3,2-b][1,4]oxazin-3(4H)-one]",0.125
9,"COc1ccc2ncc(Cl)c(CCC34CCC(NCc5ccc6c(c5)NC(=O)CO6)(CC3)CC4)c2n1 [Example 56, 6-((4-(2-(3-Chloro-6-methoxy-1,5-naphthyridin-4-yl)ethyl)bicyclo[2.2.2]octan-1-ylamino)methyl)-2H-benzo[b][1,4]oxazin-3(4H)-one]",0.031
10,"COc1ccc2nc(CNC34CCC(CCc5c(Cl)cnc6ccc(OC)nc56)(CC3)CC4)ccc2c1 [Example 57, 4-(2-(3-Chloro-6-methoxy-1,5-naphthyridin-4-yl)ethyl)-N-((6-methoxyquinolin-2-yl)methyl)bicyclo[2.2.2]octan-1-amine]",4
11,"COc1ccc2ncc(Cl)c(CCC34CCC(NCc5ccc6cccnc6n5)(CC3)CC4)c2n1 [Example 58, N-((1,8-Naphthyridin-2-yl)methyl)-4-(2-(3-chloro-6-methoxy-1,5-naphthyridin-4-yl)ethyl)bicyclo[2.2.2]octan-1-amine]",0.125
12,"COc1ccc2ncc(F)c(CCC34CCC(NCc5ccc(C)c(F)c5)(CC3)CO4)c2n1 [Example 59, N-(3-Fluoro-4-methylbenzyl)-1-(2-(3-fluoro-6-methoxy-1,5-naphthyridin-4-yl)ethyl)-2-oxabicyclo[2.2.2]octan-4-amine]",0.016
13,"COc1ccc2ncc(F)c(CCC34CCC(NCc5cccc(C#N)n5)(CC3)CO4)c2n1 [Example 60, 6-(((1-(2-(3-Fluoro-6-methoxy-1,5-naphthyridin-4-yl)ethyl)-2-oxabicyclo[2.2.2]octan-4-yl)amino)methyl)picolinonitrile]",8
14,"COc1ccc2ncc(F)c(CCC34CCC(NCc5cc6c(cn5)OCCO6)(CC3)CO4)c2n1 [Example 61, N-((2,3-Dihydro-[1,4]dioxino[2,3-c]pyridin-7-yl)methyl)-1-(2-(3-fluoro-6-methoxy-1,5-naphthyridin-4-yl)ethyl)-2-oxabicyclo[2.2.2]octan-4-amine]",0.063
15,"COc1ccc2ncc(F)c(CCC34CCC(NCc5cc(OC)c(OC)cn5)(CC3)CO4)c2n1 [Example 62, N-((4,5-Dimethoxypyridin-2-yl)methyl)-1-(2-(3-fluoro-6-methoxy-1,5-naphthyridin-4-yl)ethyl)-2-oxabicyclo[2.2.2]octan-4-amine]",4
16,"COc1ccc2ncc(F)c(CCC34CCC(NCc5ccc(N6CCCC6)cn5)(CC3)CO4)c2n1 [Example 63, 1-(2-(3-Fluoro-6-methoxy-1,5-naphthyridin-4-yl)ethyl)-N-((5-(pyrrolidin-1-yl)pyridin-2-yl)methyl)-2-oxabicyclo[2.2.2]octan-4-amine]",0.25
17,"COc1ccc2ncc(F)c(CCC34CCC(NCc5ccc(N6CCOCC6)nc5)(CC3)CO4)c2n1 [Example 64, 1-(2-(3-Fluoro-6-methoxy-1,5-naphthyridin-4-yl)ethyl)-N-((6-morpholinopyridin-3-yl)methyl)-2-oxabicyclo[2.2.2]octan-4-amine]",4
18,"COc1ccc2ncc(F)c(CCC34CCC(NCc5cnc(N6CCOCC6)nc5)(CC3)CO4)c2n1 [Example 65, 1-(2-(3-Fluoro-6-methoxy-1,5-naphthyridin-4-yl)ethyl)-N-((2-morpholinopyrimidin-5-yl)methyl)-2-oxabicyclo[2.2.2]octan-4-amine]",2
19,"COc1ccc2ncc(F)c(CCC34CCC(NCc5ccc6c(c5)OCCN6C)(CC3)CO4)c2n1 [Example 66, 1-(2-(3-Fluoro-6-methoxy-1,5-naphthyridin-4-yl)ethyl)-N-((4-methyl-3,4-dihydro-2H-benzo[b][1,4]oxazin-7-yl)methyl)-2-oxabicyclo[2.2.2]octan-4-amine]",0.125
20,"COc1ccc2ncc(F)c(CCC34CCC(NCc5cc(Cl)c6c(c5)OCCO6)(CC3)CO4)c2n1 [Example 67, N-((8-Chloro-2,3-dihydrobenzo[b][1,4]dioxin-6-yl)methyl)-1-(2-(3-fluoro-6-methoxy-1,5-naphthyridin-4-yl)ethyl)-2-oxabicyclo[2.2.2]octan-4-amine]",0.031
21,"COc1ccc2ncc(F)c(CCC34CCC(NC(=O)c5ccc(C)c(F)c5)(CC3)CO4)c2n1 [Example 68, 3-Fluoro-N-(1-(2-(3-fluoro-6-methoxy-1,5-naphthyridin-4-yl)ethyl)-2-oxabicyclo[2.2.2]octan-4-yl)-4-methylbenzamide]",0.016
22,"COc1ccc2ncc(F)c(CCC34CCC(NCc5ccc6c(c5)OCCO6)(CC3)CO4)c2n1 [Example 69, N-((2,3-Dihydrobenzo[b][1,4]dioxin-6-yl)methyl)-1-(2-(3-fluoro-6-methoxy-1,5-naphthyridin-4-yl)ethyl)-2-oxabicyclo[2.2.2]octan-4-amine]",0.008
23,"COc1ccc2ncc(F)c(CCC34CCC(NCC5CCCCC5)(CC3)CO4)c2n1 [Example 70, N-(Cyclohexylmethyl)-1-(2-(3-fluoro-6-methoxy-1,5-naphthyridin-4-yl)ethyl)-2-oxabicyclo[2.2.2]octan-4-amine]",2
24,"COc1ccc2ncc(F)c(CCC34CCC(NS(=O)(=O)c5ccc(C)c(F)c5)(CC3)CO4)c2n1 [Example 71, 3-Fluoro-N-(1-(2-(3-fluoro-6-methoxy-1,5-naphthyridin-4-yl)ethyl)-2-oxabicyclo[2.2.2]octan-4-yl)-4-methylbenzenesulfonamide]",1
25,"COc1ccc2ncc(F)c(CCC34CCC(NCc5cc(Cl)c6c(c5)OCO6)(CC3)CO4)c2n1 [Example 72, N-((7-Chlorobenzo[d][1,3]dioxol-5-yl)methyl)-1-(2-(3-fluoro-6-methoxy-1,5-naphthyridin-4-yl)ethyl)-2-oxabicyclo[2.2.2]octan-4-amine]",0.125
26,"COc1ccc2ncc(F)c(CCC34CCC(NCc5cc(-c6cccs6)on5)(CC3)CO4)c2n1 [Example 73, 1-(2-(3-Fluoro-6-methoxy-1,5-naphthyridin-4-yl)ethyl)-N-((5-(thiophen-2-yl)isoxazol-3-yl)methyl)-2-oxabicyclo[2.2.2]octan-4-amine]",0.016
27,"COc1ccc2ncc(F)c(CCC34CCC(NCc5csc(-c6ccccn6)n5)(CC3)CO4)c2n1 [Example 75, 1-(2-(3-Fluoro-6-methoxy-1,5-naphthyridin-4-yl)ethyl)-N-((2-(pyridin-2-yl)thiazol-4-yl)methyl)-2-oxabicyclo[2.2.2]octan-4-amine]",4
28,"COc1ccc2ncc(F)c(CCC34CCC(NCc5cn(-c6ncccn6)cn5)(CC3)CO4)c2n1 [Example 76, 1-(2-(3-Fluoro-6-methoxy-1,5-naphthyridin-4-yl)ethyl)-N-((1-(pyrimidin-2-yl)-1H-imidazol-4-yl)methyl)-2-oxabicyclo[2.2.2]octan-4-amine]",0.125
29,"COc1ccc2ncc(F)c(CCC34CCC(NCc5cc6cccnc6s5)(CC3)CO4)c2n1 [Example 77, 1-(2-(3-Fluoro-6-methoxy-1,5-naphthyridin-4-yl)ethyl)-N-(thieno[2,3-b]pyridin-2-ylmethyl)-2-oxabicyclo[2.2.2]octan-4-amine]",0.125
